Experimental data taken from patent US5334595A, “Pyrazoloquinolones as anticancer agents” (priority 1992, dated 1994).

How the values were obtained:
Design in all cases: species or system mice
[1] = In vivo antitumor assay, Panc03(sc); conditions: mouse, in vivo
Text: (§1) Mice: Inbred: C3H/He and NCR-nu; and Hybrids: B6D2F1 (C57BL/6 females×DBA/2 males, CD2F1 (Balb/c females×DBS/2 males) and B6C3fl (C57BL/6×C3H) were bred at Wayne State University from strains obtained from the Frederick Cancer Research Facility, Frederick, Maryland or purchased from commercial suppliers.
(§2) Tumors: Murine Tumor: P388 and an adriamycin-resistant (ADR) subline P388/ADR leukemia and the following transplantable solid tumors of mice were used for in vivo testing: B16 melanoma (B16), pancreatic ductal adenocarcinoma No. 03 (Pane 03), colon adenocarcinoma No. 38 (colo 38), lung carcinoma No. 12 (LC 12), mammary ductal adenocarcinoma No. 16/C (Mam16C) and an adriamycin-resistant subline Mam16C/ADR. Human tumor: A single human tumor, mammary carcinoma MX-1 was used for in vivo testing. All tumors are in the Developmental Therapeutics Program frozen tumor respository, maintained by the Biological Testing Branch, Frederick Maryland. Each has a detailed description, code identification number, and list of references at the National Tumor Repository. Murine tumors were maintained in the mouse strain of origin and were transplanted in the appropriate F1 hydrid (or the strain of origin) for therapy trials. Human mammary carcinoma MX-1 (MX1) was maintained as a subcutaneous implant in either athymic Swiss (Cr: NIH(S)-nu) or athymic random bred (NCR-nu) mice and transplanted in NCR-nu for therapy trials.
Chemotherapy: For pancreatic ductal adenocarcinoma No. 3, colon adenocarcinoma No. 38 (colo 38), lung carcinoma No. 12 LC 12) and both adriamycin-sensitive (RP) and-resistant (ADR) mammary ductal adenocarcinoma No. 16 (Mam16) tumors, bilateral tumor implants were used to help ensure a more uniform tumor burden per mouse (thus reducing the requirement for greater numbers of mice per group). The animals necessary to begin an experiment were pooled, implanted bilaterally s.c. on day zero with 30-60 mg tumor fragments using a 12-gauge trocar, and again pooled before randomization to the various treatment and control groups. Chemotherapy was started within three days after tumor implantation while the number of cells per mouse was relatively small (1×10^7 -1×10^8 cells).
(§3) Quantitative end points used to assess antitumor activity included % Increased Life Span (% ILS), Tumor Cell Kill (Log10 kill), and Tumor Growth Inhibition (T/C). Long Term Survivors (45 or 60 day) were excluded from calculations of %ILS and Tumor Cell Kill.
The log10 cell kill was calculated from the following formula: [formula] where T-C is the tumor difference in the median day of death between the treated (T) and the control (C) groups and Td is the tumor doubling time (in days), the latter estimated from the best fit straight line from a log-linear growth plot of the control-group tumors in exponential growth. The conversion of the T-C values to log10 cell kill is possible because the Td for tumors regrowing post-treatment approximated the Td values of the tumors in untreated control mice.
Tumors were measured with a caliper once or twice weekly (as needed) until either tumors exceeded 1600 mg or cure was assured. Tumor weights were estimated from two-dimensional measurements: Tumor Weight (mg)=(a×b^2) / 2, where a and b are the tumor length and width (ram) respectively. Measurements were carried out simultaneously in both treatment and control groups. When the control group tumors reached approximately 750-1500 mg in size (median of group), the median tumor weight of each group was determined (including zeros). The T/C value in percent is an indication of antitumor effectiveness. The % T/C was calculated from the following formula for solid murine tumor models: [formula] where T and C are median tumor weights of the treatment and control groups, respectively. A T/C equal to or less than 42% is considered significant antitumor activity. […]

[2] = tested on: P388 leukemia; experiment: In vivo antitumor assay, P388(ip); conditions: qd 1,5,9
Text: as §1, §2
(§4) For P388 and P388/ADR leukemia studies the tumor cells were implanted either interperitoneally (IP) or intravenously (IV) on day zero and treatment was started on day one. For B16 melanoma (B16) studies, the tumor cells were implanted IP on day zero and treatment was started on day one. Titered controls were also included to facilitate the calculation of tumor cell kill. For mammary carcinoma MX-1 studies, tumors were implanted with 1) subcutaneously (sc) (14-mg fragment of sc donor tumor) in the axillary region or 2) under the subrenal capsule (SRC) (10×10×10 ocular micrometer unit fragment of sc donor tumor).
as §3
(§5) Endpoints were calculated as follows: [formula] where Dt is the median day of death for treated and Dc is the median day of death for control groups. A % ILS ≥20 or ≥25 for P388 and B16 intraperitoneal models, respectively, is indicative of a significant degree of antitumor activity. A % ILS ≥75 or ≥50 for P388 and B16 intraperitoneal models, , respectively, is indicative of a high degree of antitumor activity and is the level used by National Cancer Institute to justify further development if other requirements are met (termed DN-2 level activity). Minimum quantitative activity limits for additional P388 models (e.g. P388/ADR and P388, IV) have not been defined.

[3] = In vivo antitumor assay, P388(ip); conditions: mouse, in vivo, qd 1,5,9
Text: as §1, §2, §4, §3, §5

[4] = tested on: mammary carcinoma MX-1; experiment: In vivo antitumor assay, MXI(src); conditions: drug ip, qd 1,5,9, exp SD-18, change in tumor weight
Text: as §1, §2, §4, §3
(§6) Tumors were measured with a caliper once or twice weekly (as needed) until either tumors exceeded 1600 mg or cure was assured. Tumor weights were estimated from two-dimensional measurements: Tumor Weight (mg)=(a×b^2) / 2, where a and b are the tumor length and width (ram) respectively. Measurements were carried out simultaneously in both treatment and control groups. When the control group tumors reached approximately 750-1500 mg in size (median of group), the median tumor weight of each group was determined (including zeros). The T/C value in percent is an indication of antitumor effectiveness. The % T/C was calculated from the following formula for solid murine tumor models: [formula] where T and C are median tumor weights of the treatment and control groups, respectively. […] A T/C value <10% is indicative of a high degree of antitumor activity and is the level used by National Cancer Institute to justify further development if other requirements are met (termed DN-2 level activity). By convention the T/C value for the mammary carcinoma MX-1 models is calculated by the parameter of change in tumor weight . The % T/C was calculated from the following formula for MX-1 models [formula] where ΔT and ΔC are the change in mean tumor weight of the test and control groups, respectively, and T (initial) is the initial mean tumor weight of the test group. […] A reproducible % T/C ≤10 is considered significant activity.

[5] = In vivo antitumor assay, MXI(src); conditions: mouse, in vivo, drug ip
Text: as §1, §2, §4, §3, §6

Cc1cc(-c2c(F)cc3c4nn(CCNCCO)c(=O)c-4cn(C4CC4)c3c2F)cc(C)n1 [Example 17]
MTD ([1]; MTD): 1410 mg/kg
ILS % ([2]; drug ip): 50%
Log Kill ([2]; drug ip): 3.5
ILS % ([2]; drug iv): 5%
Log Kill ([2]; drug iv): 0.35
MTD ([3]; drug ip): 180 mg/kg
MTD ([3]; drug iv): 120 mg/kg

Cc1cc(-c2c(F)cc3c4nn(CCN(C)C)c(=O)c-4cn(C4CC4)c3c2F)cc(C)n1.O=C(O)/C=C/C(=O)O [Example 1, 5-Cyclopropyl-6,8-difluoro-2,5-dihydro-2-[2-(dimethylamino)-ethyl]-7-(2,6-dimethyl-4-pyridinyl)-3H-pyrazolo[4,3-c]quinolin-3-one (E)-2-butendioate (1:1)]
T/C % [4]: 6%
MTD ([5]; qd 1,5,9, exp SD-18): 52 mg/kg
MTD ([1]; iv, Panc03(sc), drug iv, qd 3,4, exp 1005A, read-out: MTD): 52 mg/kg
MTD ([1]; iv, Panc03(sc), drug iv, qd 3,6,9, exp 1146, read-out: MTD): 34 mg/kg
MTD ([1]; iv, Panc03(sc), drug iv, qd 3, exp 895A, read-out: MTD): 35 mg/kg
MTD ([1]; iv, Panc03(sc), drug iv, qd 3-9, exp 910, read-out: MTD): 45 mg/kg
ILS % ([2]; drug ip): 155%
Log Kill ([2]; drug ip): 11
ILS % ([2]; drug iv): 170%
Log Kill ([2]; drug iv): 12
MTD ([3]; drug ip): 78 mg/kg
MTD ([3]; drug iv): 117 mg/kg

Cc1cc(-c2c(F)cc3c4nn([C@H]5CC[C@H](N(C)C)CC5)c(=O)c-4cn(C4CC4)c3c2F)cc(C)n1 [Example 51b]
T/C % [4]: 2%
MTD ([5]; qd 1,5,9, exp SD-18): 99 mg/kg
MTD ([1]; MTD): > 390 mg/kg
ILS % ([2]; drug ip): 85%
Log Kill ([2]; drug ip): 6.2
ILS % ([2]; drug iv): 85%
Log Kill ([2]; drug iv): 6.2
MTD ([3]; drug ip): 66 mg/kg
MTD ([3]; drug iv): 120 mg/kg

Cc1cc(-c2c(F)cc3c4nn(CCCN(C)C)c(=O)c-4cn(C4CC4)c3c2F)cc(C)n1 [Example 14]
MTD ([1]; iv, MTD): 107 mg/kg
ILS % ([2]; drug ip): 85%
Log Kill ([2]; drug ip): 6.1
ILS % ([2]; drug iv): 70%
Log Kill ([2]; drug iv): 5.0
MTD ([3]; drug ip): 42 mg/kg
MTD ([3]; drug iv): 64 mg/kg

Cc1cc(-c2c(F)cc3c4nn([C@H]5CC[C@@H](N(C)C)CC5)c(=O)c-4cn(C4CC4)c3c2F)cc(C)n1 [Example 51a]
T/C % [4]: 5%
MTD ([5]; qd 1,5,9, exp SD-18, MTD not achieved, maximum dose tested): > 23 mg/kg
MTD ([1]; iv, MTD): 63 mg/kg
ILS % ([2]; drug ip): 65%
Log Kill ([2]; drug ip): 4.7
ILS % ([2]; drug iv): 70%
Log Kill ([2]; drug iv): 5.1
MTD ([3]; drug ip): 9.9 mg/kg
MTD ([3]; drug iv): 39.9 mg/kg

Cc1cc(-c2c(F)cc3c4nn([C@H]5CC[C@@H](N)CC5)c(=O)c-4cn(C4CC4)c3c2F)cc(C)n1 [Example 56a, 2-(Cis-4-Aminocyclohexyl)-5-cyclopropyl-6,8-difluoro-2,5-dihydro-7-(2,6-dimethyl-4-pyridinyl)-3H-pyrazolo-[4,3-c]quinolin-3-one]
MTD ([1]; iv, MTD): 110 mg/kg
